The values that follow are results of earlier work, collected in PMC7114187 (Antiviral Research, 2008).

The test system of this data set is NA^WT(WSN) with H274Y mutation. The conditions noted are these: cited from earlier work.

Molecules are shown by their SMILES.

Take `CCOC(=O)C1=C[C@@H](OC(CC)CC)[C@H](NC(C)=O)[C@@H](N)C1` [Oseltamivir, oseltamivir]: the “fold increase in the IC50 by H274Y mutation” value is 754 fold.
